From patent publication US4894459A, “Process for the preparation of morphologically homogeneous forms of thiazole derivatives” (Richter Gedeon Vehyeszeti Gyar Rt., priority 1986, dated 1990)
Values after ≈ are worked out from the molar mass of the structure shown.

Key:
[1] = medium with a pH lower than 3
histamine-H2 receptor = conditions: well known; cited from earlier work
[2] = 10 mg in 100 ml distilled water
Experimental: The investigation was made as follows: 10-10 mg of the form to be tested were weighed into 100 ml of distilled water, under stirring. At appropriate times samples were taken from the system, and after filtration and appropriate dilution the amount of dissolved famotidine was determined by ultraviolet spectrophotometry.

[3] = for Deformity ratio: ratio of longitudinal axis and greatest diameter, average of 250 grains
Experimental: (G) The Deformity Ratio of the Crystals
Deformity ratio means the ratio of the longitudinal axis and greatest diameter of the crystal.
The data were determined from the measurement of 250-250 grains by averaging.

physchem = conditions: for solubility at 5 h: distilled water, water, Saturation solubility, 5 hours stirring, UV at 277 nm
Experimental: The investigation was made as follows: the different forms were stirred in distilled water for 5 hours, and the concentration of the material in solution was determined by ultraviolet spectroscopy at 277 nm wavelength.

[4] = 95:5 mixtures, water, 24 hours at 60° C.
Experimental: (I) Thermodynamic Stability
The test was made as follows: a mixture of the different forms in a ratio of 95:5 for both derivatives contaminated with the other polymorph was prepared, then the system was stirred with a magnetic stirrer for 24 hours at 60° C. so that water only covered the crystals. The crystals were then filtered and morphologically studied.

[5] = for Rolling angle (basic angle of the cone): funnel with tube of 5 mm diameter, opening 10 cm above the level of the material
Experimental: The data given here were measured according to the following scheme:
The form to be tested was filled into a funnel provided with a tube of 5 mm diameter, then the funnel was set into a position so that its opening was 10 cm above the level of the material.

[6] = for Compaction ratio: with / without compaction; for Bulk density with compaction: hand-vibrator for 5 minutes
[7] = for Electrostatic charging: amount of stuck material after knocking / Electrostatic charging: amount of stuck material without knocking: 37 g in glass dish of 120 mm, 1 minute rubbing; for Electrostatic charging: amount of stuck material after knocking: dish knocked 10 times
Experimental: (J) Electrostatic Charging
As there is no simple procedure to be carried out in an organic chemistry laboratory, the data presented below were measured as follows: Into a glass dish of 120 mm diameter 37 g of one of the forms were transferred and then the sample was stirred for 1 minute with rubbing with a flattened end glass-rod. Following this, the content of the dish was poured out without shaking, and the amount of stuck material was measured on a balance. Then the measurement was repeated so that the dish was knocked 10 times.

[8] = form "A" vs form "B"

| SMILES | Dynamic solubility at 2 min [2] [mg/L] | Dynamic solubility at 5 min [2] [mg/L] | Dynamic solubility at 10 min [2] [mg/L] | Dynamic solubility at 1 hour [2] [mg/L] | Deformity ratio [3] | Thermodynamic stability [4] | Rolling angle (basic angle of the cone) [5] | Compaction ratio [6] | Bulk density with compaction [6] [g/L] | Bulk density without compaction [6] [g/L] | Electrostatic charging: amount of stuck material after knocking [7] [g] | Electrostatic charging: amount of stuck material without knocking [7] [g] | further results |
| --- | --- | --- | --- | --- | --- | --- | --- | --- | --- | --- | --- | --- | --- |
| N=C(N)Nc1nc(CSCCC(=N)NS(N)(=O)=O)cs1 [Famotidine, N-sulfamoyl-3-(2-guanidino-thiazole-4-yl-methylthio)-propionamidine] |  |  |  |  |  |  |  |  |  |  |  |  | Hydrolysis of the amidino group [1]: highly capable of hydrolysis; histamine-H2 receptor blocking effect (histamine-H2 receptor): excellent |
| NC(N)=Nc1nc(CSCCC(N)=NS(N)(=O)=O)cs1 [Form "B", N-sulfamoyl-3-(2-guanidino-thiazole-4-yl-methylthio)-propionamidine] | 25 | 40 | 51 | 76 | 4.70 | metastabile | more than 55 ° | 1.47 | 505 | 340 | 10.0 | 13 | Deformity ratio, times higher than form "A" ([3]; form "B" vs form "A"): 3.3 times; solubility at 5 h (physchem; unit given as mg): 980 µg/mL (≈ 2900 µM); Saturation solubility, comparison in words (physchem; form "B" vs form "A"): significantly higher; Slope of piled up sample at the beginning ([5]; rolling angle test, footnote x, correct rolling angle not measurable): 80-85 °; Electrostatic charging: amount attracted, times more than form "A" ([7]; form "B" vs form "A"): 20 times |
| NC(N)=Nc1nc(CSCCC(N)=NS(N)(=O)=O)cs1 [Form "A", N-sulfamoyl-3-(2-guanidino-thiazole-4-yl-methylthio)-propionamidine] | 19 | 25 | 42 | 72 | 1.40 | stabile | 41-42 ° | 1.38 | 960 | 695 | 0.5 | 2.8 | solubility at 5 h (physchem): 860 µg/mL (≈ 2550 µM); Handling and stability, comparison in words [8]: unambiguously more advantageous |
